Source: publication PMC8460535, “Novel serotonin 5-HT2A receptor antagonists derived from 4-phenylcyclohexane-5-spiro-and 5-methyl-5-phenyl-hydantoin, for use as potential antiplatelet agents” (Pharmacological Reports, 2021)
Values joined by “and” are separate entries in the source; they are usually repeats but may differ in a detail not shown here. Equal entries are not always repeated. Where two headings read alike, the source gives them in different places.

What was measured:
[1] = test system: whole rat blood aggregation induced by collagen; assay: In vitro whole rat blood aggregation induced by collagen (Multiplate); type: cell-based; settings: collagen 1.6 μg/ml, na = not active
Protocol: (§1) In vitro aggregation assays were performed using freshly drawn whole rat blood with a Multiplate platelet function analyzer (Roche Diagnostic), the five-channel aggregometer based on measurements of electric impedance. Blood was collected from carotid arteries with a hirudin blood tube (Roche Diagnostic). 300 μl of hirudin anticoagulated blood was mixed with 300 μl prewarmed isotonic saline solution containing studied compound or vehicle (deionized water or DMSO 0.1%) and preincubated for 3 min at 37 °C with continuous stirring. Aggregation was induced by adding collagen (Hyphen-Biomed, France) (final concentration 1.6 µg/ml), 5-HT (30 µM) and sub-threshold concentration of collagen (0.8 µg/ml), 5-HT (6 µM) and sub-threshold concentration of ADP (ADP test, Roche Diagnostic), (1.6 µM). The aggregation process was recorded for 6 min. Ketanserin (ketanserin ( +) tartrate salt, Sigma-Aldrich, Germany), sarpogrelate (sarpogrelate hydrochloride, Sigma-Aldrich, Germany), and aspirin (Tocris, UK) were used as reference compounds. The Multiplate software analyzed the area under the curve (AUC) of the clotting process of each measurement and calculated the mean values. Each concentration of studied compounds was tested at least three times. The exact sample size (n value) is presented on Figs. 2–4. Concentration-inhibition curves were constructed and analyzed by non-linear curve fitting using GraphPad Prism 6.0 (GraphPad Software Inc., San Diego, CA, USA).

[2] = target: T1, 5-HT2A receptors in rat aorta (Rattus norvegicus, UniProt P14842); assay: Functional bioassay at 5-HT2A receptors in isolated rat aorta (5-HT-induced contraction); type: cell-based; settings: single antagonist concentration, 30 min incubation, read-out: pKB ± SEM a (converted)
T1 construct: Isolated rat aorta was used to determine the antagonistic activity of studied compounds for 5HT2A-receptors; from tissue; host or cells: aortic rings of male Wistar rats, denuded of the endothelium
Protocol: Isolated rat aorta was used to determine the antagonistic activity of studied compounds for 5HT2A-receptors. The male Wistar rats weighting 200–350 g were anesthetized with thiopental sodium (75 mg/kg i.p.) and the aorta was dissected and placed in a Krebs–Henseleit solution (NaCl 118 mM, KCl 4.7 mM, CaCl2 2.25 mM, MgSO4 1.64 mM, KH2PO4 1.18 mM, NaHCO3 24.88 mM, glucose 10 mM, C3H3O3Na 2.2 mM, EDTA 0.05 mM), denuded of the endothelium, cleaned of surrounding fat tissues and cut into 4-mm-long rings. The aortic rings were incubated in 30 ml chambers filled with a Krebs–Henseleit solution at 37 °C and pH 7.4 with constant oxygenation (O2/CO2, 19:1). Two stainless steel stirrups were inserted through the lumen of each aortic segment: one stirrup was attached to the bottom of the chamber and the other to an isometric FDT10-A force–displacement transducer (BIOPAC Systems, Inc., COMMAT Ltd., Turkey). The aortic rings were stretched and maintained at optimal tension of 2 g and allowed to equilibrate for 2 h.
After the equilibration period, the aortic rings were contracted to maximal tension with KCl (60 mM). The depolarizing solution KCl (60 mM) was obtained by equimolar substitution of […]. Then the cumulative concentration–response curves to 5-HT were determined in the absence and presence of antagonist. Tissues were incubated with antagonists for 30 min.
Concentration–response curves were analyzed using GraphPad Prism 6.0 software (GraphPad Software Inc., San Diego, CA, USA). […] Data are the mean ± SEM of three separate experiments. The affinity was estimated with the equation pKB = log(concentration ratio–1)-log(molar antagonist concentration), where the concentration ratio is the ratio of equi-effective agonist concentrations in the absence and in the presence of the antagonist.

[3] = test system: whole rat blood aggregation induced by 5-HT and ADP; assay: In vitro whole rat blood aggregation induced by 5-HT and sub-threshold ADP; type: cell-based; settings: for IC50: 5-HT 6 μM and ADP 1.6 μM, na = not active, read-out: c (5-HT + ADP) IC50
Protocol: as §1

[4] = target: T2, human 5-HT2A receptor (Homo sapiens, UniProt P28223); assay: 5-HT2A receptor radioligand binding assay ([3H]-ketanserin, CHO-K1 membranes); settings: read-out: Ki [nM] ± SEM
T2 construct: purchased PerkinElmer; host or cells: CHO-K1 cells, stably transfected
Protocol: Stock solutions of tested compounds (10 mM) were prepared in DMSO. […] Each compound was tested in eight concentrations from 10^–5 to 10^–12 M (final concentration).
Radioligand binding was performed using membranes from CHO-K1 cells stably transfected with the human 5-HT2A receptor (PerkinElmer). All assays were carried out in duplicates. Data were fitted to a one-site curve-fitting equation with Prism 6 (GraphPad Software) and Ki values were estimated from the Cheng − Prusoff equation. The full description of this assay is in Supplementary material.
Mianserin (10 μM) was used to define nonspecific binding. […] The reaction was terminated by rapid filtration through GF/B filter mate presoaked with 0.5% polyethyleneimine for 30 minutes. Ten rapid washes with 200 µl 50 mM Tris buffer (4°C, pH 7.4) were performed using automated harvester system Harvester-96 MACH III FM (Tomtec). […] Radioactivity was counted in MicroBeta2 scintillation counter (PerkinElmer).

[5] = test system: whole rat blood aggregation induced by 5-HT and collagen; assay: In vitro whole rat blood aggregation induced by 5-HT and sub-threshold collagen; type: cell-based; settings: 5-HT 30 μM and collagen 0.8 μg/ml, read-out: b (5-HT + collagen) IC50
Protocol: as §1

[6] = target: T2, human 5-HT2A receptor; assay: Aequorin luminescence-based intracellular calcium assay in CHO cells expressing human 5-HT2A; type: cell-based; settings: cells expressing human 5-HT2A receptors, antagonist mode vs α-methylserotonin 30 nM; read-out: pKB ± SEM b (converted)
Protocol: Tested and reference compounds were dissolved in DMSO at a concentration of 10^–2 M. Serial dilutions were prepared in 96-well microplate in assay buffer and eight to ten concentrations were tested.
A cellular aequorin-based functional assay was performed with recombinant Chinese hamster ovary cells expressing mitochondrially targeted aequorin, human G-protein-coupled receptors, and the promiscuous G protein α16 for 5-HT2A. The full description of this assay is in Supplementary materials.
A cellular aequorin-based functional assay was performed with recombinant Chinese hamster ovary cells expressing mitochondrially targeted aequorin, human G-protein-coupled receptors and the promiscuous G protein α16 for 5-HT2A. After thawing, cells were transferred to assay buffer (Dulbecco's Modified Eagle Medium/HAM’s F12 with 0.1% protease free bovine serum albumin) and centrifuged. The cell pellet was resuspended in assay buffer and coelenterazine h was added at final concentrations of 5 μM. The cells suspension was incubated at 16°C, protected from light with constant agitation for 16 h and then diluted with assay buffer to the concentration of 120,000 cells/ml. After 1 h of incubation, 50 μl of the cells suspension was dispensed using automatic injectors built into the radiometric and luminescence plate counter MicroBeta2 LumiJET (PerkinElmer, USA) into white opaque 96-well microplates preloaded with test compounds. Immediate light emission generated following calcium mobilization was recorded for 30 s. In antagonist mode, after 30 min of incubation the reference agonist was added to the above assay mix and light emission was recorded again. Final concentration of the reference agonist was equal to EC80 of α-methylserotonin (30 nM).

[7] = target: 5-HT2A receptor; settings: cited from earlier work
[8] = test system: whole rat blood aggregation induced by 5-HT and ADP; parameters: method as in PMID 29111111; settings: 5-HT 6 μM and ADP 1.6 μM, already published, read-out: c (5-HT + ADP) IC50; cited from earlier work
[9] = literature values, no reference given, read-out: 5-HT2A: Ki of conventional antagonists

T2 sequence (P28223 whole entry): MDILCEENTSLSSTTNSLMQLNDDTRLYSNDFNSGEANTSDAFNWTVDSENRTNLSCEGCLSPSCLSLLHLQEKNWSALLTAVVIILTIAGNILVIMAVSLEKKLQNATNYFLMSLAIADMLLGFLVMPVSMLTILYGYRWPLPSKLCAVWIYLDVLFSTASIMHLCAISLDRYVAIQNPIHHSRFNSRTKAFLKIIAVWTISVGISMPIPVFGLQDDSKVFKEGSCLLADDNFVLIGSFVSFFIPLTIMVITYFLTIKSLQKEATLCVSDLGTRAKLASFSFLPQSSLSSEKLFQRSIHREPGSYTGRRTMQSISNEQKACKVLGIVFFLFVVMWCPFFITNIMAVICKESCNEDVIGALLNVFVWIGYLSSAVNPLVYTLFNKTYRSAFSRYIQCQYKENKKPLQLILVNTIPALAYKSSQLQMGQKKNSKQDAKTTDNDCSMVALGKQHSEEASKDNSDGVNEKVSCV
T1 sequence (P14842 whole entry): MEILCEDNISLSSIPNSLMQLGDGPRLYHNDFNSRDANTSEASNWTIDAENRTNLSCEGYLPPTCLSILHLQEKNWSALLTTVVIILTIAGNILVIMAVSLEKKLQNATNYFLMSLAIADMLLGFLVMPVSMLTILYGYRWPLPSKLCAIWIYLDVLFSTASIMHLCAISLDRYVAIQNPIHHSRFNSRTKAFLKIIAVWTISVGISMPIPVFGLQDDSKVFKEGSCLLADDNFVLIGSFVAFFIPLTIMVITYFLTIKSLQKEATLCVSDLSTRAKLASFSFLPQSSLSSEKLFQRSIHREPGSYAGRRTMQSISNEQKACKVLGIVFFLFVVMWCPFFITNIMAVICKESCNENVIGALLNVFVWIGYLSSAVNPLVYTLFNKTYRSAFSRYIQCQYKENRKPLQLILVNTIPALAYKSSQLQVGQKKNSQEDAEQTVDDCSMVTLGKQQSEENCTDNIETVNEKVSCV

Compound	melting point [°C]	Kb [2] [µM]	Ki [4] [nM]	IC50 [5] [µM]	Kb [6]	IC50 [3] [µM]	further results
CC(=O)Oc1ccccc1C(=O)O [Aspirin]							IC50 [1]: 14.5 ± 1.1 µM
CC1(c2ccccc2)NC(=O)N(CCN2CCN(C(=O)c3ccc(F)cc3)CC2)C1=O (stereo not shown) [Compound 1, 3-(2-(4-(4-Fluorobenzoyl)piperazin-1-yl)ethyl)-5-methyl-5-phenylimidazolidine-2,4-dione]	117 to 119						
CC1(c2ccccc2)NC(=O)N(CCN2CCN(C(c3ccccc3)c3ccccc3)CC2)C1=O (stereo not shown) [Compound 2, 3-(2-(4-Benzhydrylpiperazin-1-yl)ethyl)-5-methyl-5-phenylimidazolidine-2,4-dione]		0.69	450 ± 43.9	140 ± 18.9	1.97 µM		inhibitory effect on ADP- and 5-HT-induced blood aggregation ([3]; at a concentration of 200 μM): did not exhibit any significant inhibitory effect
CC1(c2ccccc2)NC(=O)N(CCCN2CCN(c3ccccc3F)CC2)C1=O (stereo not shown) [Compound 3, 3-(3-(4-(2-Fluorophenyl)piperazin-1-yl)propyl)-5-methyl-5-phenylimidazolidine-2,4-dione]		0.216	516 ± 52	17.4 ± 10.9	~0.175 µM and 0.175 µM	37.9 ± 6.5	
CC1(c2ccccc2)NC(=O)N(CCCN2CCN(c3cccc(F)c3)CC2)C1=O (stereo not shown) [Compound 4, 3-(3-(4-(3-Fluorophenyl)piperazin-1-yl)propyl)-5-methyl-5-phenylimidazolidine-2,4-dione]		0.44	340 ± 57	153 ± 26.4	9.23 µM	83.1 ± 8.1	
CC1(c2ccccc2)NC(=O)N(CCCN2CCN(c3ccc(F)cc3)CC2)C1=O (stereo not shown) [Compound 5, 3-(3-(4-(4-Fluorophenyl)piperazin-1-yl)propyl)-5-methyl-5-phenylimidazolidine-2,4-dione]		0.11	48 ± 4.9	127 ± 32.7	9.29 µM	124 ± 36.2	
CC1(c2ccccc2)NC(=O)N(CCCN2CCN(C(=O)c3ccc(F)cc3)CC2)C1=O (stereo not shown) [Compound 6, 3-(3-(4-(4-Fluorobenzoyl)piperazin-1-yl)propyl)-5-methyl-5-phenylimidazolidine-2,4-dione]	72 to 74						
O=C(c1ccc(F)cc1)N1CCN(CCN2C(=O)NC3(CCC(c4ccccc4)CC3)C2=O)CC1 (stereo not shown) [Compound 7, 3-(2-(4-(4-Fluorobenzoyl)piperazin-1-yl)ethyl)-8-phenyl-1,3-diazaspiro[4.5]decane-2,4-dione]	224 to 226						
O=C1NC2(CCC(c3ccccc3)CC2)C(=O)N1CCN1CCN(C(c2ccccc2)c2ccccc2)CC1 (stereo not shown) [Compound 8, 3-(2-(4-Benzhydrylpiperazin-1-yl)ethyl)-8-phenyl-1,3-diazaspiro[4.5]decane-2,4-dione]	243 to 245						
O=C1NC2(CCC(c3ccccc3)CC2)C(=O)N1CCCN1CCN(c2ccccc2F)CC1 (stereo not shown) [Compound 9, 3-(3-(4-(2-Fluorophenyl)piperazin-1-yl)propyl)-8-phenyl-1,3-diazaspiro[4.5]decane-2,4-dione]		0.0959	220 ± 19.6	139 ± 16.1	1.99 µM		
O=C1NC2(CCC(c3ccccc3)CC2)C(=O)N1CCCN1CCN(c2cccc(F)c2)CC1 (stereo not shown) [Compound 10, 3-(3-(4-(3-Fluorophenyl)piperazin-1-yl)propyl)-8-phenyl-1,3-diazaspiro[4.5]decane-2,4-dione]		0.501	297 ± 19.9	94.3 ± 53.5		119 ± 32.1	
O=C1NC2(CCC(c3ccccc3)CC2)C(=O)N1CCCN1CCN(c2ccc(F)cc2)CC1 (stereo not shown) [Compound 11, 3-(3-(4-(4-Fluorophenyl)piperazin-1-yl)propyl)-8-phenyl-1,3-diazaspiro[4.5]decane-2,4-dione]		0.0372	21 ± 1.7	91.3 ± 7.1	0.175 µM	140 ± 44.6	
O=C(c1ccc(F)cc1)N1CCN(CCCN2C(=O)NC3(CCC(c4ccccc4)CC3)C2=O)CC1 (stereo not shown) [Compound 12, 3-(3-(4-(4-Fluorobenzoyl)piperazin-1-yl)propyl)-8-phenyl-1,3-diazaspiro[4.5]decane-2,4-dione]	203 to 205		2580 ± 302				
O=C(c1ccc(F)cc1)C1CCN(CCn2c(=O)[nH]c3ccccc3c2=O)CC1 [Ketanserin, reference compound]				1.3			Ki [7, 9]: 0.002 µM; IC50 [1]: 32.1 ± 3 µM; IC50 [8]: 9.7 ± 2.1 µM
CC1(c2ccccc2)NC(=O)N(CCCN2CCN(c3ccccc3)CC2)C1=O (stereo not shown) [compound B]							Ki ([7]; 5-HT2A receptors, previous studies, read-out: Ki (5-HT2A) of earlier hydantoin leads): 0.069 µM
O=S1(=O)c2cccc3cccc(c23)N1CCCN1CCN(c2ccc(F)cc2)CC1 [fananserin, reference compound]							Ki [7, 9]: 0.00037 µM
